IC50 data for 13 compounds are collected here from patent US20250179017A1 (GUANGDONG NEWOPP BIOPHARMACEUTICALS CO., LTD., priority 2022, published 2025).

Molecules are shown by their SMILES.

T1 sequence (P43116 whole entry): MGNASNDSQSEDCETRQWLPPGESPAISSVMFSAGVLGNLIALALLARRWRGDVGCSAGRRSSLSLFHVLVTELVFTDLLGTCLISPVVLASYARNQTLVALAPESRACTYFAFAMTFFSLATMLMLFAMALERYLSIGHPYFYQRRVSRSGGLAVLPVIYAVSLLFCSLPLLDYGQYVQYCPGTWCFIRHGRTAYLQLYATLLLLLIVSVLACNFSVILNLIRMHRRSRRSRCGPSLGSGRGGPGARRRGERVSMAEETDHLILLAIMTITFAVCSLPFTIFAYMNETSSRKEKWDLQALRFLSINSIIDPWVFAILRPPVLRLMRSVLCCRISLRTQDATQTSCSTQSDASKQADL

This test has as its target T1, human EP2 (PTGER2) (Homo sapiens, UniProt P43116).
T1 construct: Cayman Chemical (Human EP2 Reporter Assay Kit)
Nature of the test: EP2 antagonist assay (HEK-293 CNG membrane potential cAMP assay / 293T SEAP reporter assay, PGE2-stimulated). The conditions noted are these: EP2 antagonist activity; concentration for 50% inhibition of signal compared to DMSO. The test is classed as cell-based. In a few lines: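 Two formats. In a CRE-SEAP reporter assay, reverse-transfected 293T cells received compound with PGE2 (13 nM final) for 6-8 h, then luminescence was read. In the ACTOne CNG format, HEK-293 cells were preincubated with compound for 15 min at RT, stimulated with 5 nM PGE2 for 30 min, and read by membrane-potential dye fluorescence. IC50 was taken versus DMSO.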
Background: cAMP levels reflect the balance of adenylyl cyclase and phosphodiesterase activity.
As to `CS(=O)(=O)c1cccc(-c2cc(C(=O)NCc3ccc(C(=O)O)cc3)c3c(ccn3Cc3ccc(C(F)(F)F)cc3)c2)c1` [Example 84, 4-((5-(3-(methylsulfonyl)phenyl)-1-(4-(trifluoromethyl)benzyl)-1H-indole-7-carboxamido)methyl)benzoic acid], the half-maximal inhibitory concentration (IC50) is below 100 nM.

Consider `O=C(O)c1ccc(CNC(=O)c2cc(-c3ccccc3O)cc3ccn(Cc4ccc(C(F)(F)F)cc4)c23)cc1` [Example 86, 4-((5-(2-hydroxyphenyl)-1-(4-(trifluoromethyl)benzyl)-1H-indole-7-carboxamido)methyl)benzoic acid], for which the IC50 is below 100 nM.

On to `O=C(O)c1ccc(CNC(=O)c2cc(-c3cc(Cl)cc(Cl)c3)cc3ccn(Cc4ccc(C(F)(F)F)cc4)c23)cc1` [Example 88, 4-((5-(3,5-dichlorophenyl)-1-(4-(trifluoromethyl)benzyl)-1H-indole-7-carboxamido)methyl)benzoic acid], for which the IC50 was 100 to 1000 nM.

Consider `O=C(O)c1ccc(CNC(=O)c2cc(-c3ccccc3C(F)(F)F)cc3ccn(Cc4ccc(C(F)(F)F)cc4)c23)cc1` [Example 89, 4-((1-(4-(trifluoromethyl)benzyl)-5-(2-(trifluoromethyl)phenyl)-1H-indole-7-carboxamido)methyl)benzoic acid], for which the IC50 lay in the range of 100 to 1000 nM.

As to `O=C(O)c1ccc(CNC(=O)c2cc(-c3ccccc3Cl)cc3ccn(Cc4ccc(C(F)(F)F)cc4)c23)cc1` [Example 90, 4-((5-(2-chlorophenyl)-1-(4-(trifluoromethyl)benzyl)-1H-indole-7-carboxamido)methyl)benzoic acid], the IC50 was below 100 nM.

In the case of `O=C(O)c1ccc(CNC(=O)c2cc(-c3ccc(Cl)c(F)c3)cc3ccn(Cc4ccc(C(F)(F)F)cc4)c23)cc1` [Example 91, 4-((5-(4-chloro-3-fluorophenyl)-1-(4-(trifluoromethyl)benzyl)-1H-indole-7-carboxamido)methyl)benzoic], the IC50 is below 100 nM.

Compound `Cc1ccccc1-c1cc(C(=O)NCc2ccc(C(=O)O)cc2)c2c(ccn2Cc2ccc(C(F)(F)F)cc2)c1` [Example 92, 4-((5-(o-tolyl)-1-(4-(trifluoromethyl)benzyl)-1H-indole-7-carboxamido)methyl)benzoic acid] registered an IC50 below 100 nM.

With `Nc1ccccc1-c1cc(C(=O)NCc2ccc(C(=O)O)cc2)c2c(ccn2Cc2ccc(C(F)(F)F)cc2)c1` [Example 93, 4-((5-(2-aminophenyl)-1-(4-(trifluoromethyl)benzyl)-1H-indole-7-carboxamido)methyl)benzoic acid], the IC50 fell in the range of 100 to 1000 nM.

Regarding `O=C(O)c1ccc(CNC(=O)c2cc(-c3ccc(F)c(Cl)c3)cc3ccn(Cc4ccc(C(F)(F)F)cc4)c23)cc1` [Example 94, 4-((5-(3-chloro-4-fluorophenyl)-1-(4-(trifluoromethyl)benzyl)-1H-indole-7-carboxamido)methyl)benzoic], the half-maximal inhibitory concentration (IC50) was below 100 nM.

With `O=C(O)c1ccc(CNC(=O)c2cc(-c3cc(F)cc(Cl)c3)cc3ccn(Cc4ccc(C(F)(F)F)cc4)c23)cc1` [Example 95, 4-((5-(3-chloro-5-fluorophenyl)-1-(4-(trifluoromethyl)benzyl)-1H-indole-7-carboxamido)methyl)benzoic acid], the IC50 was below 100 nM.

Compound `N#Cc1cccc(-c2cc(C(=O)NCc3ccc(C(=O)O)cc3)c3c(cnn3Cc3ccc(C(F)(F)F)cc3)c2)c1` [Example 98, 4-((5-(3-cyanophenyl)-1-(4-(trifluoromethyl)benzyl)-1H-indazole-7-carboxamido)methyl)benzoic acid] returned a 50% inhibitory concentration (IC50) below 100 nM.

`O=C(O)c1ccc(CNC(=O)c2cc(-c3cc(F)cc(F)c3)cc3cnn(Cc4ccc(C(F)(F)F)cc4)c23)cc1` [Example 99, 4-((5-(3,5-difluorophenyl)-1-(4-(trifluoromethyl)benzyl)-1H-indazole-7-carboxamido)methyl)benzoic acid]: the IC50 was below 100 nM.

For `O=C(O)c1ccc(CNC(=O)c2ccc(Nc3ccccc3)c3ccn(Cc4cccc(Cl)c4)c23)cc1` [Example 103, 4-((1-(3-chlorobenzyl)-4-(phenylamino)-1H-indole-7-carboxamido)methyl)benzoic acid], the half-maximal inhibitory concentration (IC50) was in the range of 100 to 1000 nM.

For orientation: IC50 means the point on the concentration scale where inhibition reaches its midpoint.
